Test results: US4707484A, “Substituted piperidinomethylindolone and cyclopent(b)indolone derivatives” (Hoffmann-La Roche Inc., priority 1986, dated 1987)
Where a name gives a salt, the structure may show the parent alone. Read-outs that look alike come from different tables or passages of the source.

Tests used:
[1] = tested on: apomorphine-induced rearing; test: Antagonism of apomorphine-induced rearing in mice; settings: for ED50: Mus musculus; for Antagonism of Apomorphine Rearing % protected at 10 mg/kg: intravenous 10 mg/kg
[2] = tested on: D-amphetamine hyperactivity (central nervous system dopamine receptors); test: Antagonism of D-amphetamine hyperactivity in mice; settings: Mus musculus, read-out: Antagonism of Amphetamine Hyperactivity ED50
[3] = target: T1, dopamine receptors (Rattus norvegicus, UniProt P61169); test: 3H-spiroperidol binding test (rat striatal brain homogenates); settings: 0.2 nM 3H-spiroperidol, 20 min, read-out: Binding IC50 (inhibition of 3H-spiroperidol binding to dopamine receptors)
T1 construct: rat striatal brain homogenates; from tissue; host or cells: rat striatum (brain homogenate)
T1 sequence (P61169 whole entry): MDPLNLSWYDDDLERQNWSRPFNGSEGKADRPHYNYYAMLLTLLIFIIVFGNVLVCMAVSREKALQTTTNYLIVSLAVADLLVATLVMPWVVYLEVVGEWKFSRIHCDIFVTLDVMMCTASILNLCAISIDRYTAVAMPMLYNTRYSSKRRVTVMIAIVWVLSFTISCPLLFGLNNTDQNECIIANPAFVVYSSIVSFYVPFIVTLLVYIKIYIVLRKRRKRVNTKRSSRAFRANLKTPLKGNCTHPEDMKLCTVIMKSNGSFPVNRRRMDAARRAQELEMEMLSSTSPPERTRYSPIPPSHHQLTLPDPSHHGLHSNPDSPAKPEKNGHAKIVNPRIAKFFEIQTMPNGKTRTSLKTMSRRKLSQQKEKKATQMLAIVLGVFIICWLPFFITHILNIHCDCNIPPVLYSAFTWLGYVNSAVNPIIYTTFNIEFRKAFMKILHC
Protocol: Dopamine receptor antagonism by compounds of formula I in vitro is determined by the ^3 H-spiroperidol binding assay. In this test, rat striatal brain homogenates were incubated for 20 minutes in the presence of 0.2 nanomolar ^3 H-spiroperidol and varying concentrations of test compounds. The incubations were terminated by rapid filtrations through Whatman GF/B filters, followed by 2×5 mL washes with ice-cold assay buffer (50 mM tribase-HCl pH 7.7 which contains fixed concentrations of 0.1% ascorbic acid, 120 mM NaCl, 5 mM KCl, 2 mM CaCl2, and 1 mM MgCl2).

[4] = Side effect evaluation in dogs; assay type: in vivo, dog (beagle); settings: oral 1 mg/kg, then one day later 10 mg/kg; observed six hours
Protocol: For side effect liability evaluation, pure breed beagle dogs from Marshall Inc., North Rose, N.Y., were used. Prior to dosing, the dogs were fasted for approximately 18 hrs. Dosing was orally by gelatin capsule. […] Compound of formula Ia was initially administered orally at a dose of 1 mg/kg and then one day later at an oral dose of 10 mg/kg. An experienced observer monitored these dogs for six hours, following dosing.

[5] = tested on: apomorphine emesis; test: Anti-apomorphine emesis in dogs; assay type: in vivo, dog (female Beagle); settings: Canis lupus familiaris, po; orally, 1 hour before apomorphine HCl 0.1 mg/kg s.c.; 1 hour observation; read-out: anti-emetic ED50 (apomorphine emesis)
Protocol: Pure-bred female Beagle dogs (Fa. WIGA, Versuchstier-Zuchtanstalt, 8741 Sulzfeld, GFR) with an approximate body weight of 15 kg were used. All dogs were shown previously to vomit at least four times during the 60 minutes following injection of 0.1 mg/kg apomorphine .HCl s.c. into the neck. Each dog was used in 14 day intervals. Three drug sessions were followed by an apomorphine control session.
The compound of formula If was administered suspended in 5% acacia at different dose levels by oral gavage to at least 4 dogs per dose. One hour later 0.1 mg/kg apomorphine .HCl was injected s.c. and the dogs observed for a further hour for vomiting.

[6] = tested on: cisplatin-induced emesis; test: Anti-cisplatin emesis in dogs; assay type: in vivo, dog (Beagle); settings: for effectiveness against apomorphine and cisplatin emesis (in words): dogs
Protocol: The procedure was as follows:
In the evaluation 6 male and 6 female Beagle dogs, supplied by White Eagle Laboratories, Doylestown PA., were used. Three dogs were tested daily. Each dog received either saline-placebo, 30 ml i.v.; the compound of formula If, 10 mg/kg i.v.; or domperidone 10 mg/kg i.v. The compound of formula If was dissolved in warm sterile water for injection. Domperidone was solubilized in acetic acid and the pH was adjusted with 2N NaOH. Both drugs were diluted to an infusion volume of 30 mL with sterile water. The treatments were infused over a 30-minute (n=3) or a 60-minute (n=9) period. […] The cisplatin, 1 mg/ml dissolved in sterile water, was infused over a 10 minute period. Each treatment was given to 2 male and 2 female weight-matched dogs.
The dogs were fed Wayne dog food moistened in water, 20 grams/kg, one hour prior to treatment. During the observation period the onset, frequency and severity of vomiting episodes as well as any atypical behavioral activity was recorded.
Statistical evaluation of emetic activity was done using Student's-t test for unpaired data.

[7] = po, 2 h, read-out: Antagonism of Apomorphine rearing ED50
[8] = 10 mg/kg i.v., cisplatin 3 mg/kg i.v.

Row | Compound | ED50 [1, 7] | ED50 ([2]; po, 1 h) | IC50 [3] | Antagonism of Apomorphine Rearing % protected at 10 mg/kg ([1]; 4 hr after administration) | Antagonism of Apomorphine Rearing % protected at 10 mg/kg ([1]; 7 hr after administration) | also measured
1 | O=C(CCCN1CCC(O)(c2ccc(Cl)cc2)CC1)c1ccc(F)cc1 [haloperidol, reference compound] | 0.18 mg/kg | 0.23 mg/kg |  |  |  | 
2 | CCc1c(C)[nH]c2c1C(=O)C(CN1CCC3(CC1)C(=O)NCN3c1ccccc1)CC2 (stereo not shown) [Compound Ia, 8-[(3-ethyl-4,5,6,7-tetrahydro-2-methyl-4-oxo-1H-indol-5-yl)methyl]-1-phenyl-1,3,8-triazaspiro[4.5]-decan-4-one] | > 100 mg/kg | > 100 mg/kg | 0.095 nM |  |  | grossly observable abnormal signs (behavior, motor coordination) [4]: Neither dose level produced any grossly observable alteration in behavior or motor coordination nor were any other abnormal signs seen; ED50 ([1]; iv, 2 h, read-out: Antagonism of Apomorphine Rearing ED50): 7 mg/kg; ED50 ([1]; iv, 7 h, read-out: Antagonism of Apomorphine Rearing ED50): 2.3 mg/kg; ED50 ([2]; iv, 2 h): 15.9 mg/kg; ED50 ([2]; iv, 7 h): 8.6 mg/kg
3 | CN(C)CCCN1c2ccccc2Sc2ccc(Cl)cc21 [chloropromazine HCl, reference compound] | 4.9 mg/kg | 2.1 mg/kg |  |  |  | 
4 | O=C1c2c([nH]c3c2CCC3)CCC1CN1CCC2(CC1)C(=O)NCN2C1CCCCC1 (stereo not shown) [Compound Ic, 8-[(1,2,3,4,5,6,7,8-octahydro-8-oxocyclopent[b]indol-7-yl)methyl]-1-cyclohexyl-1,3,8-triazaspiro[4.5]-decan-4-one] | > 100 mg/kg | > 100 mg/kg | 0.52 nM | 40% | 40% | 
5 | O=C1c2c([nH]c3c2CCC3)CCC1CN1CCC2(CC1)C(=O)NCN2c1ccccc1 (stereo not shown) [Compound If, 1,2,3,5,6,7-hexahydro-7-[(4-oxo-1-phenyl-1,3,8-triazaspiro[4.5]decan-8-yl)methyl]-4H-cyclopent[b]indol-8(8H)-one] | 12 mg/kg | > 100 mg/kg | 0.35 nM |  |  | ED50 [5]: 0.75 mg/kg; Vomiting episodes Mean (± S.E.) 6 Hrs [6, 8]: 6.0 ± 1.8; Vomiting episodes Mean (± S.E.) 1 hr. [6, 8]: 1.0 ± 0.4; effectiveness against apomorphine and cisplatin emesis (in words) [6]: effective against both apomorphine and cisplatin emesis in dogs
6 | CCc1c(C)[nH]c2c1C(=O)C(CN1CCC3(CC1)C(=O)NCN3C1CCCCC1)CC2 (stereo not shown) [Compound Ie] | 98 mg/kg | 235 mg/kg | 0.082 nM | 62% | 79% | 
7 | Cc1[nH]c2c(c1C)C(=O)C(CN1CCC3(CC1)C(=O)NCN3c1ccccc1)CC2 (stereo not shown) [Compound Id, 8-[4,5,6,7-tetrahydro-(2,3-dimethyl-4-oxo-1H-indol-5-yl)methyl]-1-phenyl-1,3,8-triazaspiro[4.5]decan-4-one] | 12 mg/kg | 147 mg/kg | 0.078 nM |  |  | ED50 ([1]; iv, 4 h, read-out: Antagonism of Apomorphine Rearing ED50): 5.1 mg/kg; ED50 ([2]; iv, 4 h): > 20 mg/kg
8 | CC1NC(=O)C2(CCN(CC3CCc4[nH]c5c(c4C3=O)CCC5)CC2)N1c1ccccc1 (stereo not shown) [Compound Ib, 8-[(1,2,3,4,5,6,7,8-octahydro-8-oxocyclopent[b]indol-7-yl)methyl]-2-methyl-1-phenyl-1,3,8-triazaspiro[4.5]-decan-4-one] | > 100 mg/kg | > 100 mg/kg | 0.94 nM | 36% | 36% | 
9 | O=c1[nH]c2ccccc2n1CCCN1CCC(n2c(=O)[nH]c3cc(Cl)ccc32)CC1 [domperidone] | 23 mg/kg | 194 mg/kg |  |  |  | ED50 [5]: 0.2 mg/kg; emesis versus controls (in words) [6, 8]: did not differ significantly from controls; Vomiting episodes Mean (± S.E.) 6 Hrs [6, 8]: 12.5 ± 2.3; Vomiting episodes Mean (± S.E.) 1 hr. [6, 8]: 2.1 ± 0.7; effectiveness against apomorphine and cisplatin emesis (in words) [6]: only effective against apomorphine emesis in dogs
